Measurements from patent US12728139B2, “Methods of preparing purified atomic quantum clusters” (NANOGAP SUB-NM-POWDER, S.A., priority 2018, dated 2026).

Tests used:
A549 proliferating cells = assay: STORM super-resolution imaging of chromatin organization; format: cell-based, human; settings: Ag3-AQCs 55.61 ng/mL or AgNO3 5 μM, 30 min
Description: 1.5×10^4 A549 cells were plated on 8-well Lab-tek cover glass chamber (Nunc) and 24 hours later cells were synchronized in S phase by adding 0.8 mM hydroxyurea (H-8627, Sigma) to the culture medium. […] The medium was removed and replaced with complete medium containing EdU (20 μM) for 2 hours. Cells were then fixed and permeabilized with Methanol-Acetone (1:1) solution at 20° C. for 10 minutes and blocked (3% BSA+0.01% Triton X-100) for 1 hour at RT. Finally, cells were washed three times with PBS and stained with Alexa Fluor 647 following the instructions provided by the manufacturer (Click-iT® EdU Alexa Fluor®488 Imaging Kit, Thermo Fisher Scientific).
The chromatin was imaged using a commercial microscope system from Nikon Instruments (NSTORM). […]
STORM images were analysed and rendered as previously described in Bates et al. 2007. […]
Since the labelling density of the EdU was very high, all of the images were roughly normalized to the same number of localizations per μm^2 of the nucleus, by varying the number of frames used in the final reconstructed image. The percentage of non-zero pixels of the reconstructed images was then calculated in ImageJ, and the percentage of nuclear area covered by EdU also calculated. The density of chromatin per μm^2 was extracted by dividing the number of localizations (same for each recorded nucleus) over the chromatin-covered area.

A549 Luc-C8 cells = assay: Luminescent cell viability assay; format: cell-based, human; settings: 24 hours
Description: Data represent mean±SD of 2 independent experiments with 3 replicas per experiment. Mann Whitney test ((*) p<0.01).
After that, treatments were removed and 20 μL of lysis buffer (Promega) added to wells and incubated for 30 minutes, shacking. Lysates were then transferred to 1.5 mL tubes and centrifuged for 15 minutes at high speed.

[1] = test system: A549 orthotopic lung cancer; assay: Orthotopic lung cancer model; settings: CDDP 4 mg/kg intravenously, up to 37 days
Description: (a) Tumour growth measured in vivo by luminescence (IVIS® Spectrum).
A suspension of 1×10^6 non-small cell lung carcinoma luciferase expressing cells (A549 Luc-C8 Bioware® cell line) in PBS (50 μL) was injected through the intercostal space into the left lung of athymic nude mice. During this procedure, mice were anaesthetized using 4% isoflurane inhalation. To follow tumour growth, luciferin was injected into the intraperitoneal cavity at a dose of 150 mg/kg body weight approximately 5 minutes before imaging. Luciferase bioluminescence was imaged under vaporized isofluran anaesthesia using an IVIS® Living Image® System (Caliper Life Sciences, Hopkinton, MA, USA) that allowed monitoring of both the primary tumour growth and cancer cell dissemination in a semi quantitative fashion. After in vivo imaging for several days (up to 37 days), the mice were sacrificed, and protein extracts were obtained from different organs to quantify luciferase activity.

A549 cells = assay: Quantification of platinum bound to DNA (ICP-MS) in A549 cells; format: cell-based, human; settings: proliferating A549 cells, CDDP 50 μM
Description: DNA-bound platinum was assessed as previously described in Comenge et al. PLoS One 2012, 7: e47562. Briefly, 5×10^5 A549, MCF7 or U87-luc cells were seeded in 60 mm diameter plates. […] After the treatment, the cells were washed twice with PBS, trypsinised and centrifuged. The supernatants were removed, and the cell pellets were stored at −20° C. overnight. […] After 24 hours, the animals were sacrificed, and the organs were removed. Small pieces (1-2 mm^3) of tumour (lung) and other organs (heart, liver, kidney, spleen, brain and bone marrow) were separated using a scalpel. From this point, the steps for DNA extraction are common to cells and tissue samples. After freezing overnight, cell or tissue pellets were suspended in 300 μL of lysis buffer (150 mM Tris pH 8; 100 mM EDTA pH 8; 100 mM NaCl; 0.5% SDS) and 10 μL of Proteinase K (20 μg/μL). […] The DNA concentration was determined using a NanoDrop 2000 spectrophotometer (Thermofisher, Spain). […] Finally, the amount of platinum was determined by mass spectrometry using an ICP-MS BRUCKER 820-MS with a low-flow glass Micromist nebulizer and a double-pass spray chamber with a Peltier cooling (3° C.) and quartz torch (Bruker Corp., Billerica, MA, USA).

single nucleosomes = biological target: T1, single nucleosomes (Homo sapiens, UniProt P62805+P68431+Q16778+Q7L7L0); assay: Single-nucleosome destabilization, gel shift assay; format: biochemical; settings: etoposide 60 μM or doxorubicin 20 μM 4 hours; Ag3-AQCs 83 ng/mL 30 minutes
T1 construct: purchased New England Biolabs, Ipswich, USA
Description: From each reaction, half of the sample was electrophoresed under non-denaturing conditions, and the gel was stained with ethidium bromide (left, upper panel) and silver (left, lower panel). The remaining portion of the sample was analysed to check that equal amounts of histones were loaded in all cases (right panel). The position of unbound DNA, assembled nucleosomes and histones are indicated. (b) Nucleosomes were incubated with etoposide or doxorubicin as in (a) or the indicated Ag3-AQC dilutions (initial concentration, AQCs 1:10=83 ng/mL). Samples were analysed by native polyacrylamide electrophoresis, and the gel was stained first with ethidium bromide (top) and subsequently with silver (bottom) to visualize histones. This image is representative of two independent experiments.
Single nucleosome preparations were obtained using the Epimark Nucleosome Assembly Kit (New England Biolabs, Ipswich, USA) following the dilution assembly protocol from the manufacturer.
For the gel shift assay, 5% non-denaturing polyacrylamide gels were prepared using TBE buffer. After a 1 hour preliminary run at 100 V, the reactions containing nucleosomes were mixed with DNA loading buffer, and the electrophoresis was performed at 100 V for 2 h. Gels were stained with ethidium bromide to visualize DNA, and the signal was captured using the Gel Doc XR system (Bio-Rad). […]

octamer = settings: 25° C., ITC and fluorescence; cited from earlier work

O=[N+]([O-])[O-].[Ag+] [AgNO3, Silver nitrate]
Chromatin compaction (STORM images) (A549 proliferating cells): did not affect chromatin compaction

N.N.O=C([O-])C1(C(=O)[O-])CCC1.[Pt+2] [CBDCA, Carboplatin]
IC5 (A549 Luc-C8 cells): 0.25 µM | IC25 (A549 Luc-C8 cells): 0.5 µM | IC50 (A549 Luc-C8 cells): 1000 µM | IC75 (A549 Luc-C8 cells): 2000 µM

[NH2][Pt]([NH2])([Cl])[Cl] [CDDP, Cisplatin]
IC5 (A549 Luc-C8 cells): 5 µM | IC25 (A549 Luc-C8 cells): 10 µM | IC50 (A549 Luc-C8 cells): 50 µM | IC75 (A549 Luc-C8 cells): 100 µM | Tumour growth in vivo (bioluminescence) [1]: significantly reduced the growth of tumours

COc1cccc2c1C(=O)c1c(O)c3c(c(O)c1C2=O)C[C@@](O)(C(=O)CO)C[C@@H]3O[C@H]1C[C@H](N)[C@H](O)[C@H](C)O1 [DOX, Doxorubicin]
Increase of amount of CDDP bound to DNA on co-administration with CDDP (A549 cells): did not increase CDDP binding to DNA | Dissociation of single nucleosomes (single nucleosomes): dissociated nucleosomes

CC[N+](C)(CC)CCC[n+]1c(-c2ccccc2)c2cc(N)ccc2c2ccc(N)cc21.[I-].[I-] [IP, Propidium iodide]
Formation constant of complex with octamer (octamer): 140000 M⁻¹

O=C1[O][Pt]2([NH][C@@H]3CCCC[C@H]3[NH]2)[O]C1=O [OXA, Oxaliplatin]
IC5 (A549 Luc-C8 cells): 2.5 µM | IC25 (A549 Luc-C8 cells): 12.5 µM | IC50 (A549 Luc-C8 cells): 50 µM | IC75 (A549 Luc-C8 cells): 200 µM

COc1cc([C@@H]2c3cc4c(cc3[C@@H](O[C@@H]3O[C@@H]5CO[C@@H](C)O[C@H]5[C@H](O)[C@H]3O)[C@H]3COC(=O)[C@H]23)OCO4)cc(OC)c1O [etoposide]
Dissociation of single nucleosomes (single nucleosomes): has no effect
